Results on four molecules are retold here after patent publication US8268859B2, “Glucocorticoid mimetics, methods of making them, pharmaceutical compositions and uses thereof” (Boehringer Ingelheim International GmbH, priority 2008, dated 2012).

The nature of data set [1]: High throughput solubility. In kind it is physicochemical. The conditions noted are these: aqueous buffer (pION system solution), pH 7, aqueous buffer, kinetic from dmso stock.
For another data set, the target named is T1, Potassium Channel HERG (Homo sapiens, UniProt Q12809).
T1 construct: expressed in transfected cells; host or cells: HEK-293 cells
Description: hERG assays (either hERG binding assay or hERG patch clamp assay). It counts as cell-based. As to conditions: Table 3, not specified per compound.

Data set [2] can be described thus: Human microsomal stability. As to conditions: pH 7.4; human liver microsomes; read-out: human liver microsome half life. It counts as in vitro ADME.

SMILES strings stand for the structures. ≈ marks a conversion by molar mass, not a printed value.

In general, solubility refers to how much of the substance goes into solution per volume. A high value points to a readily soluble substance. One may read the IC50 as the concentration needed to halve the response being measured. Low readings indicate greater potency in that assay, high ones weaker potency in that assay. A word on the half-life: it is the time needed for the level to fall by half in the phase considered.

T1 sequence (Q12809 whole entry): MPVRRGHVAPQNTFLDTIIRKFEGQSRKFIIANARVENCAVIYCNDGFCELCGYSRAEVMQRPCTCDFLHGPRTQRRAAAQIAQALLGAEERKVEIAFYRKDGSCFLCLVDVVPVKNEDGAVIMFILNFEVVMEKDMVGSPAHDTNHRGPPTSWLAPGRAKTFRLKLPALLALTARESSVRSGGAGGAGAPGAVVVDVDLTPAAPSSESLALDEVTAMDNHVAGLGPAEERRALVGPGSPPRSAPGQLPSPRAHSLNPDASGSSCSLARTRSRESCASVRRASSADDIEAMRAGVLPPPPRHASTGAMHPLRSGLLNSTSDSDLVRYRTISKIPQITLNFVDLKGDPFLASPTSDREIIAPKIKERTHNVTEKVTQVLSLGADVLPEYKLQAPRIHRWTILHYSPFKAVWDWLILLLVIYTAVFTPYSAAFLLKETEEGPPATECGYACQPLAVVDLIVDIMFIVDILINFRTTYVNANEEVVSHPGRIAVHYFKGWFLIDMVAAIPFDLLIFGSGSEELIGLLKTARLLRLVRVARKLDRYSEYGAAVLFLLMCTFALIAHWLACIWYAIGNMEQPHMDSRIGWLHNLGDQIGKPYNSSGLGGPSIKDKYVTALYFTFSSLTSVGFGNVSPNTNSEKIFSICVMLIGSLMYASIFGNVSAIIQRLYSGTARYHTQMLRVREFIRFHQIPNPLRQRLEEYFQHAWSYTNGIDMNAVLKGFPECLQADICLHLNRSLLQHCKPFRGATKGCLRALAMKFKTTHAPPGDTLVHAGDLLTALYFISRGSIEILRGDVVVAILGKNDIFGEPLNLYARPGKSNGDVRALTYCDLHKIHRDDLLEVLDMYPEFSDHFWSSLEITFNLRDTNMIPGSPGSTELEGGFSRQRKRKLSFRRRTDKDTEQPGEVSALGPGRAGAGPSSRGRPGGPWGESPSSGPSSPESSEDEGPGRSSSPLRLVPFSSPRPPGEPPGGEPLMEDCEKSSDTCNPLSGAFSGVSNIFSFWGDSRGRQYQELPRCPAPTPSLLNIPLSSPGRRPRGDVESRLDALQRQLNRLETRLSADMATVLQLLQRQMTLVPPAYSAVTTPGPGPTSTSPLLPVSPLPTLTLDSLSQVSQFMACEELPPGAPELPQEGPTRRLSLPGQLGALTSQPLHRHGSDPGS

On to `CC(C)(C[C@@](O)(Cc1cc2cc(S(C)(=O)=O)ncc2[nH]1)C(F)(F)F)c1ccc(Cl)cc1S(C)(=O)=O` [drawing 97], for which the solubility in data set [1] came out at 40 µg/mL (≈ 72.3 µM). Besides, the IC50 on Potassium Channel HERG is greater than 10 µM. Moreover, in data set [2], the half-life stood at 17 min.
`CCS(=O)(=O)c1cc2cc(CC(O)(CC(C)(C)c3ccc(Cl)cc3S(C)(=O)=O)C(F)(F)F)[nH]c2cn1` (stereo not drawn) [drawing 98] gave a solubility in data set [1] of 18 µg/mL (≈ 31.7 µM). Moreover, on Potassium Channel HERG, the IC50 was greater than 10 µM. In data set [2], the half-life was determined as 11 min.
`CCS(=O)(=O)c1cc2cc(CC(O)(CC(C)(C)c3ccc(F)cc3S(C)(=O)=O)C(F)(F)F)[nH]c2cn1` (stereo not drawn) [drawing 99]: the solubility in data set [1] came to 52 µg/mL (≈ 94.4 µM). Moreover, the IC50 at Potassium Channel HERG is greater than 30 µM. Further, in data set [2], the half-life turned out to be 7 min.
In turn, `CC(C)(C[C@@](O)(Cc1cc2cc(S(C)(=O)=O)ncc2[nH]1)C(F)(F)F)c1ccc(F)cc1S(C)(=O)=O` [drawing 100] displayed a solubility in data set [1] greater than 100 µg/mL. This molecule also gave an IC50 on Potassium Channel HERG greater than 30 µM. Besides, the half-life in data set [2] came out at 14 min.
